From the NIST ThermoML archive (doi:10.1016/j.jct.2004.07.008)

Test: xn = mol fraction of the nth substance listed
Conditions: 100 kPa, Liquid

CCNCC [diethylamine] + O
mass density [kg/m3]
Conditions	278.15 K	288.15 K	293.15 K	298.15 K	308.15 K
x1 = 0.0006	999.491	998.664	997.751	996.626	993.562
x1 = 0.0024	997.912	997.039	996.154	994.988	991.942
x1 = 0.0035	996.932	996.037	995.136	993.969	990.903
x1 = 0.0044	996.139	995.23	994.323	993.151	990.065
x1 = 0.0056	995.225	994.285	993.371	992.182	989.066
x1 = 0.0064	994.57	993.602	992.679	991.472	988.353
x1 = 0.0081	993.249	992.212	991.279	990.04	986.873
x1 = 0.0097	992.04	990.934	989.98	988.714	985.476
x1 = 0.0172	987.17	985.63	984.539	983.09	979.496
x1 = 0.0291	980.983	978.376	976.96	975.088	970.666
x1 = 0.04	976.381	972.612	970.596	968.411	962.812
x1 = 0.0799	957.078	949.316	945.543	941.882	936.416
x1 = 0.0962	–	939.288	–	932.747	927.169
x1 = 0.1023	–	935.289	–	928.614	923.171
x1 = 0.1157	–	927.131	–	918.262	–
x1 = 0.1191	933.215	925.183	920.953	916.971	910.193
x1 = 0.1717	905.317	896.85	892.377	888.178	883.177
x1 = 0.229	–	871.09	–	–	–
x1 = 0.2382	876.611	867.217	863.096	858.163	848.844
x1 = 0.2939	859.045	–	842.233	837.568	827.974
x1 = 0.3003	857.537	844.712	839.967	835.41	825.737
x1 = 0.3501	–	829.202	824.477	819.781	810.104
x1 = 0.3558	838.534	–	822.73	817.933	808.149
x1 = 0.3911	–	–	–	809.086	–
x1 = 0.4057	–	814.027	809.021	–	794.354
x1 = 0.4407	815.342	–	–	795.926	–
x1 = 0.4625	810.256	799.75	795.056	789.779	779.967
x1 = 0.4844	805.352	–	–	784.888	–
x1 = 0.5091	799.695	–	–	–	769.213
x1 = 0.523	–	–	781.055	–	766.718
x1 = 0.5287	–	–	–	775.014	–
x1 = 0.6144	779.133	768.288	763.538	759.804	748.753
x1 = 0.6304	775.979	–	760.21	–	745.249
x1 = 0.7017	763.313	–	747.769	742.589	732.049
x1 = 0.7022	–	752.772	–	742.461	732.247
x1 = 0.726	–	–	742.965	–	–
x1 = 0.7549	–	–	738.917	733.676	723.048
x1 = 0.7771	751.837	–	735.541	730.331	719.687
x1 = 0.805	749.039	737.02	731.853	726.558	–
x1 = 0.8523	741.596	729.358	724.287	718.777	708.199
x1 = 0.8755	735.261	–	–	715.631	–
x1 = 0.8822	–	725.559	719.965	714.728	–
x1 = 0.8941	–	–	718.394	713.135	702.403
x1 = 0.9019	732.413	–	–	712.05	–
x1 = 0.931	–	718.71	713.312	708.033	–
x1 = 0.941	726.848	–	712.088	706.818	696.061
x1 = 0.9589	724.66	–	–	704.314	–
x1 = 0.9727	–	–	708.394	703.131	692.387
x1 = 0.979	721.447	–	–	701.729	–
x1 = 1	719.94	709.52	704.59	698.97	688.29
